From ChEMBL document CHEMBL5661943, “ASAP - In vitro antiviral effect” (2024) come the findings set out here.

Where “and” joins values, the source holds several entries; their conditions need not be identical. Equal values may be shown once.

For assay [1], the system named is dengue virus type 2. The experiment in a line: Functional immunofluorescence assay to measure dose dependent changes in antiviral-drug inhibitory efficacy against Dengue virus type 2 Thailand/16681/84 in Vero E6/TMPRSS2 cells (cotreated with P-gp inhibitor, Elacridar). Cells are treated with antiviral candidates that are serially diluted, following infection, cells are fixed. EC50 is reported via analysis of immunofluorescence staining. The assay has been performed by Icahn School of Medicine at Mount Sinai. The class given is organism-based, Chlorocebus sabaeus, VeroE6/TMPRSS2. As to conditions: for EC90: P-gp concentration 2 uM, P-gp inhibitor Elacidar.

Assay [2] has as its system dengue virus type 2. The assay is described as follows: Functional assay to measure dose dependent changes in antiviral-drug inhibitory efficacy against Dengue virus type 2 New Guinea C in Vero E6 miRFP670 cells (cotreated with P-gp inhibitor, CP100356). Cells are treated with antiviral candidates that are serially diluted, following infection, cells are fixed. EC50 is reported via analysis of fluorescence intensity using high-content imager. The …. It is filed as organism-based, Chlorocebus sabaeus, Vero C1008. Particulars: for EC90: P-gp concentration 500 nM, P-gp inhibitor CP100356.

Assay [3] has as its system Zika virus. The experiment in a line: EC50 is reported via analysis of immunofluorescence staining. The assay has been performed by Icahn School of Medicine at Mount Sinai. It is filed as functional, organism-based, Chlorocebus sabaeus, VeroE6/TMPRSS2. As to conditions: for EC90: P-gp concentration 2 uM, P-gp inhibitor Elacidar.
Assay [4] has as its system Zika virus. The assay is described as follows: Functional CPE-based assay to measure dose dependent changes in antiviral-drug inhibitory efficacy against Zika virus MR766 in Vero E6 miRFP670 cells (cotreated with P-gp inhibitor, CP100356). Cells are treated with antiviral candidates that are serially diluted. EC50 is reported via analysis of MTS assay as a readout of CPE. The assay has been performed by KU Leuven. It is filed as organism-based, Chlorocebus sabaeus, Vero C1008. As to conditions: for EC90: Baseline response 0 %, Maximum response 100 %, P-gp concentration 500 nM, P-gp inhibitor CP100356.

As for `O=C(NCC(F)F)[C@H](Nc1ccc2c(c1)CNC2)c1cc(Cl)cc(C2CC2)c1`, the EC50 is over 50 µM with dengue virus type 2 [1] (Dengue virus, VeroE6/TMPRSS2); over 50 µM in the assay on dengue virus type 2 [2] (Dengue virus, Vero C1008); over 25 µM with dengue virus type 2 [2] (vero c1008); 9.58 µM and 3.16 µM and 1.11 µM with Zika virus [4] (vero c1008). For the same molecule, the EC90 was over 50 µM with dengue virus type 2 [1] (Dengue virus, VeroE6/TMPRSS2, Maximum measured 212.671 %, Minimum measured 62.173 %); over 50 µM in the assay on dengue virus type 2 [2] (Dengue virus, Vero C1008, Maximum measured 140.556 %, Minimum measured 63.358 %); over 25 µM in the assay with dengue virus type 2 [2] (Dengue virus, Vero C1008, Maximum measured 143.73 %, Minimum measured 67.897 %); over 50 µM with dengue virus type 2 [2] (Dengue virus, Vero C1008, Baseline response 0 %, Hill slope -0.993, Maximum measured 109.944 %, Maximum response 100 %, Minimum measured 57.337 %, R squared 0.512); over 5.56 µM with Zika virus [3] (Baseline response 0 %, Hill slope -0.396, Maximum measured 99.851 %, Maximum response 100 %, Minimum measured 40.832 %, R squared 0.557); over 5.56 µM in the assay with Zika virus [3] (Baseline response 0 %, Hill slope -0.815, Maximum measured 101.881 %, Maximum response 50 %, Minimum measured 25.102 %, R squared 0.285). Further, the concentration for an effect of 90% (EC90) in the assay on Zika virus [3] (Zika virus, VeroE6/TMPRSS2, Maximum measured 91.336 %, Minimum measured 34.975 %) was over 1.85 µM; in the assay on Zika virus [3] (Zika virus, VeroE6/TMPRSS2, Baseline response 0 %, Hill slope -0.205, Maximum measured 120.59 %, Maximum response 100 %, Minimum measured 43.549 %, R squared 0.084) it was over 5.56 µM; with Zika virus [4] (EC90 CI (lower) 0 uM, EC90 CI (upper) 0 uM, Hill slope 19.422, Maximum measured 104.146 %, Minimum measured 1.001 %, R squared 0.972) it was 3.54 µM; in the assay on Zika virus [4] (EC90 CI (lower) 1.312 uM, EC90 CI (upper) 1.931 uM, Hill slope 6.18, Maximum measured 105.591 %, Minimum measured 3.511 %, R squared 0.974), 1.59 µM; with Zika virus [4] (EC90 CI (lower) 26.105 uM, EC90 CI (upper) 61.789 uM, Hill slope 1.533, Maximum measured 103.939 %, Minimum measured 1.936 %, R squared 0.959), 40.2 µM.
On to `O=C(NC1CCOCC1)[C@H](Nc1ccc2c(c1)CNC2)c1cc(Cl)cc(C2CC2)c1`, for which the EC50 in the assay with dengue virus type 2 [1] (Dengue virus, VeroE6/TMPRSS2) is over 5.56 µM; in the assay on dengue virus type 2 [2] (Dengue virus, Vero C1008), 36 µM; with Zika virus [4] (Zika virus, Vero C1008), 3.19 µM. In addition, the EC90 was over 5.56 µM in the assay with dengue virus type 2 [1] (Dengue virus, VeroE6/TMPRSS2, Maximum measured 137.73 %, Minimum measured 84.756 %); over 50 µM in the assay with dengue virus type 2 [2] (Dengue virus, Vero C1008, Baseline response 0 %, Hill slope -0.982, Maximum measured 114.445 %, Maximum response 100 %, Minimum measured 34.266 %, R squared 0.594); over 16.7 µM in the assay on Zika virus [3] (Baseline response 0 %, Hill slope -0.296, Maximum measured 102.901 %, Maximum response 100 %, Minimum measured 72.878 %, R squared 0.169); under 0.023 µM in the assay on Zika virus [3] (Baseline response 0 %, Hill slope -0.385, Maximum measured 147.213 %, Maximum response 4776.39 %, Minimum measured 30.718 %, R squared 0.741); 4.44 µM in the assay on Zika virus [4] (Zika virus, Vero C1008, EC90 CI (lower) 0.059 uM, EC90 CI (upper) 333.672 uM, Hill slope 6.678, Maximum measured 170.178 %, Minimum measured 3.055 %, R squared 0.499).
With `O=C(Nc1ccc2c(c1)CNC2)c1cc(F)cc2[nH]ncc12`, the EC50 in the assay with dengue virus type 2 [1] (Dengue virus, VeroE6/TMPRSS2) was over 50 µM; in the assay with dengue virus type 2 [2] (Dengue virus, Vero C1008), over 50 µM; with Zika virus [3] (veroe6/tmprss2), 25.4 µM and 10.9 µM; in the assay with Zika virus [4] (Zika virus, Vero C1008) it was 25 µM. For the same molecule, the EC90 is over 50 µM with dengue virus type 2 [1] (Dengue virus, VeroE6/TMPRSS2, Maximum measured 176.33 %, Minimum measured 105.177 %); over 50 µM in the assay on dengue virus type 2 [2] (Dengue virus, Vero C1008, Maximum measured 105.261 %, Minimum measured 100.126 %); 39.5 µM in the assay on Zika virus [3] (Baseline response 0 %, EC90 CI (lower) 0.259 uM, EC90 CI (upper) 34.627 uM, Hill slope -1.703, Maximum measured 110.866 %, Maximum response 50 %, Minimum measured 3.647 %, R squared 0.44); over 50 µM in the assay on Zika virus [3] (Zika virus, VeroE6/TMPRSS2, Baseline response 0 %, Hill slope -2.726, Maximum measured 111.669 %, Maximum response 100 %, Minimum measured 14.076 %, R squared 0.547); over 50 µM in the assay on Zika virus [4] (Zika virus, Vero C1008, Hill slope 1.231, Maximum measured 66.562 %, Minimum measured -0.926 %, R squared 0.986).
`O=C(Nc1ccc2c(c1)CNC2)c1cc(Br)cc2[nH]ncc12`: the EC50 is over 50 µM with dengue virus type 2 [1] (Dengue virus, VeroE6/TMPRSS2); over 50 µM with dengue virus type 2 [2] (Dengue virus, Vero C1008); 3.73 µM and 10.3 µM with Zika virus [3] (veroe6/tmprss2); over 50 µM with Zika virus [4] (Zika virus, Vero C1008). Further, the EC90 in the assay on dengue virus type 2 [1] (Dengue virus, VeroE6/TMPRSS2, Maximum measured 186.968 %, Minimum measured 93.389 %) is over 50 µM; with dengue virus type 2 [2] (Dengue virus, Vero C1008, Baseline response 0 %, Hill slope -0.471, Maximum measured 107.19 %, Maximum response 100 %, Minimum measured 78.588 %, R squared 0.089), over 50 µM; in the assay on Zika virus [3] (Baseline response 0 %, EC90 CI (lower) 1.042 uM, EC90 CI (upper) 22.584 uM, Hill slope -2.906, Maximum measured 100.475 %, Maximum response 60 %, Minimum measured 3.913 %, R squared 0.559), 22 µM; with Zika virus [3] (Baseline response 0 %, Hill slope -0.436, Maximum measured 89.533 %, Maximum response 80 %, Minimum measured 16.256 %, R squared 0.57) it was over 50 µM; in the assay with Zika virus [4] (Zika virus, Vero C1008, Hill slope 1.733, Maximum measured 40.291 %, Minimum measured -1.647 %, R squared 0.923) it was over 50 µM.
`CC(=O)Nc1cc(Br)cc(C(=O)Nc2ccc3c(c2)CNC3)c1`: the EC50 with dengue virus type 2 [1] (Dengue virus, VeroE6/TMPRSS2) was over 50 µM; in the assay on dengue virus type 2 [2] (Dengue virus, Vero C1008), over 50 µM; in the assay on Zika virus [3] (Zika virus, VeroE6/TMPRSS2), over 50 µM; in the assay on Zika virus [4] (Zika virus, Vero C1008), over 50 µM. Further, the EC90 in the assay with dengue virus type 2 [1] (Dengue virus, VeroE6/TMPRSS2, Maximum measured 175.614 %, Minimum measured 132.324 %) was over 50 µM; in the assay with dengue virus type 2 [2] (Dengue virus, Vero C1008, Baseline response 0 %, Hill slope 0.424, Maximum measured 105.264 %, Maximum response 100 %, Minimum measured 74.207 %, R squared 0.146), over 50 µM; with Zika virus [3] (Baseline response 0 %, Hill slope -0.518, Maximum measured 97.567 %, Maximum response 50 %, Minimum measured 37.703 %, R squared 0.045), over 50 µM; with Zika virus [3] (Zika virus, VeroE6/TMPRSS2, Baseline response 0 %, Hill slope -0.196, Maximum measured 132.114 %, Maximum response 100 %, Minimum measured 61.615 %, R squared 0.024), over 50 µM; in the assay on Zika virus [4] (Zika virus, Vero C1008, Hill slope -0.049, Maximum measured 5.994 %, Minimum measured 2.41 %, R squared 0.015), over 50 µM.
Take `O=C(Nc1ccc2c(c1)CNC2)c1cc(Cl)cc2ccncc12`: the EC50 in the assay on dengue virus type 2 [1] (Dengue virus, VeroE6/TMPRSS2) was over 50 µM; in the assay on dengue virus type 2 [1] (veroe6/tmprss2), 29.3 µM; in the assay on dengue virus type 2 [2] (Dengue virus, Vero C1008) it was 41.2 µM; in the assay with Zika virus [3] (Zika virus, VeroE6/TMPRSS2), 16.1 µM; with Zika virus [3] (veroe6/tmprss2) it was 9.59 µM; in the assay with Zika virus [4] (Zika virus, Vero C1008), 3.67 µM. The EC90 with dengue virus type 2 [1] (Dengue virus, VeroE6/TMPRSS2, Maximum measured 58.239 %, Minimum measured 35.466 %) is over 50 µM; in the assay with dengue virus type 2 [1] (Dengue virus, VeroE6/TMPRSS2, Baseline response 0 %, Hill slope -1.704, Maximum measured 164.443 %, Maximum response 150 %, Minimum measured 48.079 %, R squared 0.653), over 50 µM; with dengue virus type 2 [2] (Dengue virus, Vero C1008, Baseline response 0 %, Hill slope -2.845, Maximum measured 98.374 %, Maximum response 100 %, Minimum measured 34.264 %, R squared 0.76), over 50 µM; in the assay with Zika virus [3] (Baseline response 0 %, EC90 CI (lower) 0.484 uM, EC90 CI (upper) 78.893 uM, Hill slope -5.004, Maximum measured 134.979 %, Maximum response 50 %, Minimum measured 2.857 %, R squared 0.323), 14.9 µM; in the assay on Zika virus [3] (Zika virus, VeroE6/TMPRSS2, Baseline response 0 %, Hill slope -17.627, Maximum measured 65.213 %, Maximum response 47.14 %, Minimum measured 8.096 %, R squared 0.51), 18.3 µM; in the assay with Zika virus [4] (Zika virus, Vero C1008, EC90 CI (lower) 1.242 uM, EC90 CI (upper) 28.049 uM, Hill slope 4.622, Maximum measured 165.724 %, Minimum measured 0.965 %, R squared 0.715) it was 5.9 µM.

The EC50 is the concentration that produces a half-maximal response. The EC90 is the concentration at which the effect reaches the 90% level.
